# From US20230241038A1, “METHOD OF TREATING RNA REPEAT MEDIATED DISEASES WITH RNA REPEAT BINDING COMPOUND” (AMO Pharma Ltd., priority 2021, published 2023)
# Entries after “also recorded” stand apart in the source; their conditions may differ. Where two headings read alike, the source gives them in different places.
# Experiments:
# [1] = test system: RNA construct containing CUG repeats (RNA hairpin 1; SEQ ID NO:1); assay: MicroScale Thermophoresis (MST) fluorescence binding assay, RNA hairpin 1; settings: RNA hairpin 1 (CUG repeats)
# Method: [The procedure below names another target; the source lists this target under the same test.] This direct binding was determined using a MicroScale Thermophoresis (MST) Fluorescence binding assays with Tideglusib and an RNA hairpin containing CUG repeats. […] MBNL1 has a well characterized role in myotonic dystrophy where impaired RNA splicing disrupts muscle development and function.
# The method used for the MST fluorescence assay was as follows. A serial dilution of the ligand (Tideglusib) was prepared in a way to match the final buffer conditions in the reaction mix (assay buffer 20 mM HEPES pH 7.4, 0.05% Tween-20). The highest concentration of ligand was 500 μM and the lowest 15.3 nM. 5 μl of each dilution step were mixed with 5 μl of the fluorescent molecule. The final reaction mixture, which was filled in capillaries, contained a respective amount of ligand (max. conc. 250 μM, min. conc. 7.63 nM) and constant 50 nM fluorescent molecule. The samples were analyzed on a Monolith NT. 115 at 25° C., with 40% LED power and 40% Laser power. The fluorescence labeled RNA construct (RNA hairpin 2; produced by Metabion) had the following sequence: […]
# [2] = test system: patients having DM1; assay: Clinical Global Impression of Improvement in patients having DM1; type: in vivo, human; settings: patients having DM1, 400 mg or 1000 mg
# [3] = test system: JNK (pJNK); assay: Phosphorylated JNK in lymphocytes from pediatric subjects with Autism Spectrum Disorder; type: in vivo, human; settings: 12 weeks, titrated 400 mg to 1000 mg oral once per day, versus placebo
# [4] = biological target: RNA construct containing CUG repeats with interspersed interrupting non CUG repeats (RNA hairpin 3; SEQ ID NO:3); assay: MicroScale Thermophoresis (MST) fluorescence binding assay, RNA hairpin 3
# [5] = test system: RNA construct containing CAG repeats (RNA hairpin 2; SEQ ID NO:2); assay: MicroScale Thermophoresis (MST) fluorescence binding assay, RNA hairpin 2; settings: RNA hairpin 2 (CAG repeats)
# Method: The method used for the MST fluorescence assay was as follows. A serial dilution of the ligand (Tideglusib) was prepared in a way to match the final buffer conditions in the reaction mix (assay buffer 20 mM HEPES pH 7.4, 0.05% Tween-20). The highest concentration of ligand was 500 μM and the lowest 15.3 nM. 5 μl of each dilution step were mixed with 5 μl of the fluorescent molecule. The final reaction mixture, which was filled in capillaries, contained a respective amount of ligand (max. conc. 250 μM, min. conc. 7.63 nM) and constant 50 nM fluorescent molecule. The samples were analyzed on a Monolith NT. 115 at 25° C., with 40% LED power and 40% Laser power. The fluorescence labeled RNA construct (RNA hairpin 2; produced by Metabion) had the following sequence:
# Binding to other RNA trinucleotide repeats was investigated by repeating the experimental protocol above with an RNA repeat construct containing CAG repeats (RNA hairpin 2).
# [6] = test system: GSK3β; assay: GSK3β kinase protein levels in lymphocytes from treated Congenital Onset DM1 patients; type: in vivo, human; settings: 400 mg or 1000 mg po per day, six and twelve weeks of treatment
# Method: (§1) Lymphocyte cell pellets were lysed in 150 μl of cold NP40 Cell Lysis Buffer with protease inhibitors. Total protein of each extract was measured with DC Protein assay Kit according to the manufacturer specifications. For the analysis of GSK3β and related kinases, the commercially available kits AKT Pathway Total Multispecies 7-Plex Panel and the equivalent for the phosphorylated forms for Luminex® Platform from Thermo Fisher Scientific were used. These were the AKT Pathway (Total) 7-Plex Multispecies Panel (#LHO0002M ThermoFisher Scientific) that assays the following signaling proteins: GSK3β, Total IR, IGF-1R, IRS-1, Akt, PRAS40 and p70s6K. The AKT Pathway (Phospho) 7-Plex Multispecies Panel (#LHO0001M ThermoFisher Scientific) assays the following signaling proteins: GSK3β[pS9], IR[pYpY1162/1163], IGF-1R[pYpY1135/1136], IRS-1[pS312], Akt[pS473], PRAS40[pT246] and p70s6K[pTpS421/424].
# [7] = test system: phosphorylated Akt (pAkt); assay: Phosphorylated Akt in lymphocytes from pediatric subjects with Autism Spectrum Disorder; type: in vivo, human; settings: 12 weeks, titrated 400 mg to 1000 mg oral once per day, versus placebo, p<0.0001
# Method: as §1, with “In order to determine whether the clinical benefit produced by administration of Tideglusib could be related to inhibition of GSK3β, the activity of this kinase in circulating tissues in treated patients was determined. Lymphocyte” for “Lymphocyte”, “IRS-1[[…]],” for “IRS-1[pS312],”, “PRAS40[[…]]” for “PRAS40[pT246]”, “[…]421/424].” for “p70s6K[pTpS421/424].”
# [8] = test system: phosphorylated Akt (pAkt); assay: Phosphorylated Akt (pAkt) levels in lymphocytes from treated Congenital Onset DM1 patients; type: in vivo, human; settings: 400 mg or 1000 mg per day, six and twelve weeks of treatment
# Method: as §1, with “In order to determine whether the clinical benefit produced by administration of Tideglusib could be related to inhibition of GSK3β, the activity of this kinase in circulating tissues in treated patients was determined. Lymphocyte” for “Lymphocyte”, “IRS-1[[…]],” for “IRS-1[pS312],”, “PRAS40[[…]]” for “PRAS40[pT246]”, “[…]421/424].” for “p70s6K[pTpS421/424].”
# [9] = test system: ERK (pERK); assay: Phosphorylated ERK in lymphocytes from pediatric subjects with Autism Spectrum Disorder; type: in vivo, human; settings: 12 weeks, titrated 400 mg to 1000 mg oral once per day, versus placebo
smiles,measurement,setting,value
"O=C(NCc1ccccc1)Nc1cccc2ccccc12 [urea derivative of Tideglusib, 1-benzyl-3-naphthalen-1-yl-urea]",binding to CUG repeat RNA (in words),[1]; MST,no binding activity
same,binding to CUG repeat RNA (in words),"[1]; MST, listed as main metabolite of Tideglusib",No reliable binding
"O=c1sn(-c2cccc3ccccc23)c(=O)n1Cc1ccccc1 [Tideglusib, 4-Benzyl-2-naphthalen-1-yl-[1,2,4]thiadiazolidine-3,5-dione]","clinical benefit, Clinical Global Impression of Improvement measurement scale",[2],majority of patients having DM1 treated with Tideglusib showed clinical benefit
same,inhibition of phosphorylation of JNK in lymphocytes,[3],did not inhibit phosphorylation
same,Kd,"[4]; RNA hairpin 3, CUG repeats with interrupting non CUG repeats, read-out: KD of binding",3.2 µM
same,Kd,"[4]; RNA hairpin 3, interspersed non CUG repeats (CCG and CUC), read-out: potency of binding",3.2 µM
same,fold less potent binding versus RNA hairpin 1,[4]; RNA hairpin 3 versus RNA hairpin 1,162 fold
same,Kd,"[1]; MST, 25° C., read-out: KD of binding",0.0197 µM
same,binding to CAG repeat RNA (in words),[5],No reliable of binding
same,effect on GSK3β levels in lymphocytes,[6],Neither dose shows any effect
same,effect on GSK3β levels in lymphocytes,[6]; listed as Compound 1,no effect
same,inhibition of phosphorylation of Akt in lymphocytes,[7],reduces levels of phosphorylation of Akt; also recorded: inhibited phosphorylation of Akt
same,effect on phosphorylated Akt (pAkt) levels in lymphocytes,[8],not achieved; also recorded: unable overcome the phosphorylation of Akt
same,effect on phosphorylated Akt (pAkt) levels in lymphocytes,[8]; listed as Compound 1,no effect
same,inhibition of phosphorylation of ERK in lymphocytes,[9],did not inhibit phosphorylation
"CCn1c(=O)sn(Cc2ccccc2)c1=O [Compound 2, 2-Benzyl-4-ethyl-[1,2,4]thiadiazolidine-3,5-dione]",Kd,"[1]; data not shown, read-out: KD",31.4 µM
